Laboratory results as given in US20210198204A1, “PRODRUGS OF KALLIKREIN INHIBITORS” (BioCryst Pharmaceuticals, Inc., priority 2016, published 2021).

Assay: Plasma pharmacokinetics of the parent compound after a single oral dose of prodrug
Format: in vivo
Conditions: single oral dose 10 mg/kg, fasted male Sprague Dawley rats; plasma analyzed for the parent compound; study duration 8 h
Procedure, shortened: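 Three male Sprague Dawley rats, housed in metabolic cages and fasted about 15 hours, were weighed and received one oral gavage dose of 10 mg/kg as a solution in water or water/propylene glycol. Blood (approximately 500 μL) went into heparin tubes at set timepoints up to the study duration. Plasma was separated by centrifugation at 14,000 rpm for 3 min at 4° C, stored below −70° C, and assayed for the parent compound.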

Compound | AUC0-last hour (area under the curve)
C=Cc1cc(C(=O)Nc2ccc(C(=N)NC(=O)OC(C)COC(=O)CCCC[C@H]3SCC4NC(=O)NC43)cc2)c(-c2ccc(C(=O)NCC3CC3)nc2C(=O)OC(C)OC(=O)OC(C)C)cc1OC (stereo partly drawn) [Compound 104b, 1-((isopropoxycarbonyl)oxy)ethyl 6-((cyclopropylmethyl)carbamoyl)-3-(5-methoxy-2-((4-(N-(((1-((5-((4R)-2-oxohexahydro-1H-thieno[3,4-d]imidazol-4-yl)pentanoyl)oxy)propan-2-yl)oxy)carbonyl)carbamimidoyl)phenyl)carbamoyl)-4-vinylphenyl)picolinate] | A (A = 0-1,000 ng/mL)
C=Cc1cc(C(=O)Nc2ccc(C(=N)NC(=O)OCc3oc(=O)oc3C)cc2)c(-c2ccc(C(=O)NCC3CC3)nc2C(=O)OC(C)OC(=O)C(C)C)cc1OC (stereo not drawn) [Compound 117b, 1-(isobutyryloxy)ethyl 6-((cyclopropylmethyl)carbamoyl)-3-(5-methoxy-2-((4-(N-(((5-methyl-2-oxo-1,3-dioxol-4-yl)methoxy)carbonyl)carbamimidoyl)phenyl)carbamoyl)-4-vinylphenyl)picolinate] | B (B = 1,001-10,000 ng/mL)
C=Cc1cc(C(=O)Nc2ccc(C(=N)NC(=O)OCc3oc(=O)oc3C)cc2)c(-c2ccc(C(=O)NCC3CC3)nc2C(=O)OCOC(=O)[C@@H](N)C(C)C)cc1OC [Compound 118c, (S)-((2-amino-3-methylbutanoyl)oxy)methyl 6-((cyclopropylmethyl)carbamoyl)-3-(5-methoxy-2-((4-(N-(((5-methyl-2-oxo-1,3-dioxol-4-yl)methoxy)carbonyl)carbamimidoyl)phenyl)carbamoyl)-4-vinylphenyl)picolinate] | A (A = 0-1,000 ng/mL)
